Values joined by “and” are separate entries in the source; they are usually repeats but may differ in a detail not shown here. Identical values can stand only once. Inconclusive results and toxic doses are left out.
System: BDF1 mice, P388 leukemia ip, median survival T/C
Assay: NCI In Vivo Anticancer Drug Screen. Data for tumor model P388 Leukemia (intraperitoneal) in B6D2F1 (BDF1) mice
Settings: endpoint: median survival time, higher = longer survival
In short: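 Reported as T/C, where T is the survival measurement in dosed animals and C the same measurement in vehicle controls.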

[1] = dose: 1.56 mg/kg/injection, schedule: Q01DX009 (ip), vehicle: saline with Tween-80
[2] = dose: 3.13 mg/kg/injection, schedule: Q01DX009 (ip), vehicle: saline with Tween-80
[3] = dose: 6.25 mg/kg/injection, schedule: Q01DX009 (ip), vehicle: saline with Tween-80
[4] = dose: 100.0 mg/kg/injection, schedule: Q04DX003 (ip), vehicle: saline
[5] = dose: 200.0 mg/kg/injection, schedule: Q04DX003 (ip), vehicle: saline
[6] = dose: 400.0 mg/kg/injection, schedule: Q04DX003 (ip), vehicle: saline
[7] = dose: 100.0 mg/kg/injection, schedule: Q01DX009 (ip), vehicle: Klucel (hydroxypropylcellulose) (HPC)
[8] = dose: 100.0 mg/kg/injection, schedule: Q04DX003 (ip), vehicle: Klucel (hydroxypropylcellulose) (HPC)
[9] = dose: 200.0 mg/kg/injection, schedule: Q01DX009 (ip), vehicle: Klucel (hydroxypropylcellulose) (HPC)
[10] = dose: 200.0 mg/kg/injection, schedule: Q04DX003 (ip), vehicle: Klucel (hydroxypropylcellulose) (HPC)
[11] = dose: 400.0 mg/kg/injection, schedule: Q04DX003 (ip), vehicle: Klucel (hydroxypropylcellulose) (HPC)
[12] = dose: 25.0 mg/kg/injection, schedule: Q01DX009 (ip), vehicle: saline with Tween-80
[13] = dose: 50.0 mg/kg/injection, schedule: Q01DX009 (ip), vehicle: saline with Tween-80
[14] = dose: 100.0 mg/kg/injection, schedule: Q01DX009 (ip), vehicle: saline with Tween-80
[15] = dose: 50.0 mg/kg/injection, schedule: Q01DX009 (ip), vehicle: Klucel (hydroxypropylcellulose) (HPC)
[16] = dose: 100.0 mg/kg/injection, schedule: Q04DX002 (ip), vehicle: saline with Tween-80
[17] = dose: 200.0 mg/kg/injection, schedule: Q04DX002 (ip), vehicle: saline with Tween-80
[18] = dose: 200.0 mg/kg/injection, schedule: Q01DX009 (ip), vehicle: saline with Tween-80

Compound: COC(=O)[C@@H]1[C@@H](O)[C@H](OC(=O)c2cc(OC)c(OC)c(OC)c2)C[C@@H]2CN3CCc4c([nH]c5ccccc45)[C@H]3C[C@@H]21
- T/C [1]: 90 % of control
- T/C (dose: 2.0 mg/kg/injection, schedule: Q01DX009 (ip), vehicle: Klucel (hydroxypropylcellulose) (HPC)): 100 % of control
- T/C [2]: 90 % of control
- T/C (dose: 4.0 mg/kg/injection, schedule: Q01DX009 (ip), vehicle: Klucel (hydroxypropylcellulose) (HPC)): 100 % of control
- T/C [3]: 86 % of control
- T/C (dose: 8.0 mg/kg/injection, schedule: Q01DX009 (ip), vehicle: Klucel (hydroxypropylcellulose) (HPC)): 100 % of control
- T/C (dose: 16.0 mg/kg/injection, schedule: Q01DX009 (ip), vehicle: Klucel (hydroxypropylcellulose) (HPC)): 100 % of control

Compound: COC(=O)C(C)CN1CC(C)OC(C)C1 (stereo not given)
- T/C [4]: 113 % of control
- T/C [5]: 100 % of control
- T/C [6]: 100 % of control

Compound: CC1(C)OCC2OC3(C(=O)O)OC(C)(C)OC3C2O1 (stereo not given)
- T/C (dose: 25.0 mg/kg/injection, schedule: Q01DX009 (ip), vehicle: water): 100 % of control
- T/C (dose: 50.0 mg/kg/injection, schedule: Q01DX009 (ip), vehicle: water): 96 % of control
- T/C (dose: 100.0 mg/kg/injection, schedule: Q01DX009 (ip), vehicle: water): 101 % of control
- T/C (dose: 200.0 mg/kg/injection, schedule: Q01DX009 (ip), vehicle: water): 99 % of control
- T/C (dose: 400.0 mg/kg/injection, schedule: Q01DX009 (ip), vehicle: water): 101 % of control

Compound: N#Cc1nc2c(nc1C#N)-c1ccccc1C2=O
- T/C (dose: 6.0 mg/kg/injection, schedule: Q01DX009 (ip), vehicle: Klucel (hydroxypropylcellulose) (HPC)): 100 % of control
- T/C (dose: 6.25 mg/kg/injection, schedule: Q04DX003 (ip), vehicle: Klucel (hydroxypropylcellulose) (HPC)): 100 % of control
- T/C (dose: 12.0 mg/kg/injection, schedule: Q01DX009 (ip), vehicle: Klucel (hydroxypropylcellulose) (HPC)): 107 % of control
- T/C (dose: 12.5 mg/kg/injection, schedule: Q04DX003 (ip), vehicle: Klucel (hydroxypropylcellulose) (HPC)): 108 % of control
- T/C (dose: 25.0 mg/kg/injection, schedule: Q04DX003 (ip), vehicle: Klucel (hydroxypropylcellulose) (HPC)): 104 % of control

Compound: COc1ccc(C2CCCCC2O)cc1 (stereo not given)
- T/C [7]: 100 % of control
- T/C [8]: 100 % of control
- T/C [9]: 100 % of control
- T/C [10]: 100 % of control
- T/C [11]: 110 % of control

Compound: CC(C)(C)OC(=O)NC(CCC(=O)O)(Cc1ccccc1)C(=O)NC(CCC(=O)O)(Cc1ccccc1)C(=O)OCc1ccccc1 (stereo not given)
- T/C (dose: 200.0 mg/kg/injection, schedule: Q01DX005 (ip), vehicle: saline with Tween-80): 90 % of control

Compound: Cc1nc(C)c(Br)s1
- T/C [12]: 100 % of control
- T/C [13]: 100 % of control
- T/C [14]: 107 % of control

Compound: O=C(NNc1ccc([N+](=O)[O-])cc1)c1ccccc1
- T/C [15]: 100 % of control
- T/C [7]: 90 % of control
- T/C [8]: 115 % of control
- T/C [9]: 100 % of control
- T/C [10]: 100 % of control
- T/C [11]: 95 % of control

Compound: CN1CCOP1OCC(F)(F)F (stereo not given)
- T/C (dose: 25.0 mg/kg/injection, schedule: Q01DX005 (ip), vehicle: saline): 104 % of control
- T/C (dose: 50.0 mg/kg/injection, schedule: Q01DX005 (ip), vehicle: saline): 93 % of control
- T/C (dose: 100.0 mg/kg/injection, schedule: Q01DX005 (ip), vehicle: saline): 109 % of control

Compound: CCCCCCCCCCCCCCCCCC[N+](C)(C)C
- T/C (dose: 1.56 mg/kg/injection, schedule: Q04DX003 (ip), vehicle: saline): 115 % of control
- T/C (dose: 3.12 mg/kg/injection, schedule: Q04DX003 (ip), vehicle: saline): 115 % of control
- T/C (dose: 4.12 mg/kg/injection, schedule: Q01DX009 (ip), vehicle: saline): 115 % of control
- T/C (dose: 6.25 mg/kg/injection, schedule: Q01DX009 (ip), vehicle: saline): 90 % of control
- T/C (dose: 6.25 mg/kg/injection, schedule: Q04DX003 (ip), vehicle: saline): 120 % of control
- T/C (dose: 9.2 mg/kg/injection, schedule: Q04DX003 (ip), vehicle: saline): 104 % of control
- T/C (dose: 14.0 mg/kg/injection, schedule: Q04DX003 (ip), vehicle: saline): 100 % of control
- T/C (dose: 21.0 mg/kg/injection, schedule: Q04DX003 (ip), vehicle: saline): 90 % of control

Compound: COc1ccc2c(ccc[n+]2C)c1
- T/C (dose: 7.2 mg/kg/injection, schedule: Q01DX009 (ip), vehicle: saline): 104 % of control
- T/C (dose: 9.37 mg/kg/injection, schedule: Q04DX003 (ip), vehicle: saline): 91 % of control
- T/C (dose: 10.0 mg/kg/injection, schedule: Q01DX009 (ip), vehicle: saline): 104 % of control
- T/C (dose: 18.75 mg/kg/injection, schedule: Q04DX003 (ip), vehicle: saline): 91 % of control
- T/C (dose: 35.0 mg/kg/injection, schedule: Q04DX003 (ip), vehicle: saline): 122 % of control
- T/C (dose: 36.7 mg/kg/injection, schedule: Q04DX003 (ip), vehicle: saline): 110 % of control
- T/C (dose: 37.5 mg/kg/injection, schedule: Q01DX009 (ip), vehicle: saline): 150 % of control and 155 % of control
- T/C (dose: 37.5 mg/kg/injection, schedule: Q04DX003 (ip), vehicle: saline): 104 % of control
- T/C (dose: 55.0 mg/kg/injection, schedule: Q04DX003 (ip), vehicle: saline): 154 % of control

Compound: O=C(N/N=C/c1ccc(Cl)cc1Cl)c1ccccc1
- T/C [15]: 110 % of control
- T/C [7]: 110 % of control
- T/C [9]: 95 % of control

Compound: CN(C)c1ccc(/C=C/C2CC[N-]C3C(O)CCCC23)cc1.CN(C)c1ccc(/C=C/C2CC[N-]C3C(O)CCCC23)cc1.CN(C)c1ccc(/C=C/C2CC[N-]C3C(O)CCCC23)cc1.[Fe+3] (stereo not given)
- T/C [16]: 110 % of control
- T/C [17]: 122 % of control

Compound: O=C(CCBr)N1CCN(C(=O)CCBr)CC1
- T/C (dose: 10.0 mg/kg/injection, schedule: Q01DX010 (ip), vehicle: saline): 109 % of control
- T/C (dose: 20.0 mg/kg/injection, schedule: Q01DX010 (ip), vehicle: saline): 122 % of control
- T/C (dose: 40.0 mg/kg/injection, schedule: Q01DX010 (ip), vehicle: saline): 181 % of control

Compound: Cc1cc2nc[nH]c(=O)n2n1
- T/C [13]: 110 % of control
- T/C [14]: 90 % of control

Compound: CCOC1NC(C)(C)CO1 (stereo not given)
- T/C [4]: 100 % of control
- T/C [5]: 91 % of control
- T/C [6]: 95 % of control

Compound: Oc1c(Cl)cc(Cl)c2cccnc12
- T/C (dose: 12.5 mg/kg/injection, schedule: Q01DX010 (ip), vehicle: carboxymethylcellulose (CMC)): 104 % of control
- T/C (dose: 25.0 mg/kg/injection, schedule: Q01DX010 (ip), vehicle: carboxymethylcellulose (CMC)): 104 % of control
- T/C (dose: 50.0 mg/kg/injection, schedule: Q01DX010 (ip), vehicle: carboxymethylcellulose (CMC)): 104 % of control

Compound: Cc1cc(C)c[n+](C2=C([O-])C(=O)C([n+]3cc(C)cc(C)c3)=C([O-])C2=O)c1
- T/C [13]: 97 % of control
- T/C [14]: 97 % of control
- T/C [18]: 95 % of control

Compound: N#C/C(=C\c1cc(Cl)cc(Cl)c1O)C(/C(C#N)=C/c1cc(Cl)cc(Cl)c1O)c1ccc2c(c1)OCO2 (stereo not given)
- T/C (dose: 100.0 mg/kg/injection, schedule: Q04DX003 (ip), vehicle: saline with Tween-80): 91 % of control
- T/C (dose: 200.0 mg/kg/injection, schedule: Q04DX003 (ip), vehicle: saline with Tween-80): 100 % of control
- T/C (dose: 400.0 mg/kg/injection, schedule: Q04DX003 (ip), vehicle: saline with Tween-80): 108 % of control

Compound: O=C(CC(c1ccccc1)C(C(=O)O)c1ccccc1)c1ccccc1 (stereo not given)
- T/C [15]: 101 % of control
- T/C [7]: 92 % of control

Compound: Nc1ncccc1C1CCCS1 (stereo not given)
- T/C (dose: 50.0 mg/kg/injection, schedule: Q04DX002 (ip), vehicle: saline with Tween-80): 104 % of control
- T/C [16]: 98 % of control
- T/C [17]: 91 % of control

Compound: CCCC[S+](CCCC)CC(=O)c1ccc(-c2ccccc2)cc1
- T/C [1]: 105 % of control
- T/C [2]: 100 % of control
- T/C [3]: 106 % of control
- T/C (dose: 12.5 mg/kg/injection, schedule: Q01DX009 (ip), vehicle: saline with Tween-80): 107 % of control
- T/C [12]: 113 % of control

Compound: CCCCCCC(=O)/C=C/c1ccccc1OC
- T/C [13]: 90 % of control
- T/C [14]: 99 % of control
- T/C [18]: 117 % of control

— PubChem BioAssay AID328 (DTP/NCI, 2004)
